Measured values published in ChEMBL document CHEMBL3046208, “Natural and synthetic podolactones with potential use as natural herbicide models” (2000).
The source made the active and inactive calls. No cut-off for these calls is given here.

Experiments:
Type in all cases: functional
Lactuca sativa [1] = assay: Stimulation of root length of Lactuca sativa cv. Roman (lettuce) at 0.1 mM after 5 days relative to untreated control
Lepidium sativum [2] = assay: Inhibition of shoot length of Lepidium sativum at 0.1 mM after 5 days relative to untreated control
Solanum lycopersicum [3] = assay: Inhibition of root length of Solanum lycopersicum (tomato) at 0.1 mM after 5 days relative to untreated control
Triticum aestivum [4] = assay: Inhibition of shoot length of Triticum aestivum (wheat) at 0.1 mM after 5 days relative to untreated control
Lactuca sativa [5] = assay: Stimulation of germination of Lactuca sativa cv. Roman (lettuce) at 0.1 mM after 5 days relative to untreated control
Lepidium sativum [6] = assay: Stimulation of shoot length of Lepidium sativum at 0.1 mM after 5 days relative to untreated control
Lactuca sativa [7] = assay: Inhibition of root length of Lactuca sativa cv. Roman (lettuce) at 0.1 mM after 5 days relative to untreated control
Lactuca sativa [8] = assay: Inhibition of shoot length of Lactuca sativa cv. Roman (lettuce) at 0.1 mM after 5 days relative to untreated control; conditions: 120 h
Lactuca sativa [9] = assay: Stimulation of shoot length of Lactuca sativa cv. Nigra (lettuce) at 0.1 mM after 5 days relative to untreated control
Lepidium sativum [10] = assay: Inhibition of germination of Lepidium sativum at 0.1 mM after 5 days relative to untreated control
Hordeum vulgare [11] = assay: Inhibition of root length of Hordeum vulgare (barley) at 0.1 mM after 5 days relative to untreated control; conditions: 120 h
Solanum lycopersicum [12] = assay: Stimulation of germination of Solanum lycopersicum (tomato) at 0.1 mM after 5 days relative to untreated control
Lactuca sativa [13] = assay: Inhibition of root length of Lactuca sativa cv. Nigra (lettuce) at 0.1 mM after 5 days relative to untreated control
Hordeum vulgare [14] = assay: Inhibition of germination of Hordeum vulgare (barley) at 0.1 mM after 5 days relative to untreated control; conditions: 120 h
Lactuca sativa [15] = assay: Inhibition of germination of Lactuca sativa cv. Roman (lettuce) at 0.1 mM after 5 days relative to untreated control; conditions: 120 h
Hordeum vulgare [16] = assay: Stimulation of shoot length of Hordeum vulgare (barley) at 0.1 mM after 5 days relative to untreated control
Allium cepa [17] = assay: Inhibition of germination of Allium cepa (onion) at 0.1 mM after 5 days relative to untreated control; conditions: 120 h
Solanum lycopersicum [18] = assay: Stimulation of root length of Solanum lycopersicum (tomato) at 0.1 mM after 5 days relative to untreated control
Lepidium sativum [19] = assay: Stimulation of root length of Lepidium sativum at 0.1 mM after 5 days relative to untreated control
Allium cepa [20] = assay: Inhibition of shoot length of Allium cepa (onion) at 0.1 mM after 5 days relative to untreated control; conditions: 120 h
Allium cepa [21] = assay: Stimulation of root length of Allium cepa (onion) at 0.1 mM after 5 days relative to untreated control
Lactuca sativa [22] = assay: Stimulation of shoot length of Lactuca sativa cv. Roman (lettuce) at 0.1 mM after 5 days relative to untreated control
Hordeum vulgare [23] = assay: Inhibition of shoot length of Hordeum vulgare (barley) at 0.1 mM after 5 days relative to untreated control
Lepidium sativum [24] = assay: Inhibition of root length of Lepidium sativum at 0.1 mM after 5 days relative to untreated control
Triticum aestivum [25] = assay: Stimulation of germination of Triticum aestivum (wheat) at 0.1 mM after 5 days relative to untreated control
Hordeum vulgare [26] = assay: Stimulation of root length of Hordeum vulgare (barley) at 0.1 mM after 5 days relative to untreated control
Allium cepa [27] = assay: Stimulation of shoot length of Allium cepa (onion) at 0.1 mM after 5 days relative to untreated control
Triticum aestivum [28] = assay: Inhibition of germination of Triticum aestivum (wheat) at 0.1 mM after 5 days relative to untreated control
Lactuca sativa [29] = assay: Stimulation of germination of Lactuca sativa cv. Nigra (lettuce) at 0.1 mM after 5 days relative to untreated control
Allium cepa [30] = assay: Inhibition of root length of Allium cepa (onion) at 0.1 mM after 5 days relative to untreated control; conditions: 120 h
Lepidium sativum [31] = assay: Stimulation of germination of Lepidium sativum at 0.1 mM after 5 days relative to untreated control
Lactuca sativa [32] = assay: Inhibition of shoot length of Lactuca sativa cv. Nigra (lettuce) at 0.1 mM after 5 days relative to untreated control
Solanum lycopersicum [33] = assay: Inhibition of shoot length of Solanum lycopersicum (tomato) at 0.1 mM after 5 days relative to untreated control
Triticum aestivum [34] = assay: Stimulation of shoot length of Triticum aestivum (wheat) at 0.1 mM after 5 days relative to untreated control
Triticum aestivum [35] = assay: Stimulation of root length of Triticum aestivum (wheat) at 0.1 mM after 5 days relative to untreated control
Hordeum vulgare [36] = assay: Stimulation of germination of Hordeum vulgare (barley) at 0.1 mM after 5 days relative to untreated control
Allium cepa [37] = assay: Stimulation of germination of Allium cepa (onion) at 0.1 mM after 5 days relative to untreated control
Lactuca sativa [38] = assay: Stimulation of root length of Lactuca sativa cv. Nigra (lettuce) at 0.1 mM after 5 days relative to untreated control
Solanum lycopersicum [39] = assay: Stimulation of shoot length of Solanum lycopersicum (tomato) at 0.1 mM after 5 days relative to untreated control
Lactuca sativa [40] = assay: Inhibition of germination of Lactuca sativa cv. Nigra (lettuce) at 0.1 mM after 5 days relative to untreated control
Triticum aestivum [41] = assay: Inhibition of root length of Triticum aestivum (wheat) at 0.1 mM after 5 days relative to untreated control
Solanum lycopersicum [42] = assay: Inhibition of germination of Solanum lycopersicum (tomato) at 0.1 mM after 5 days relative to untreated control

## COC(=O)[C@@]1(C)CCC[C@]2(C)C3=CC(=O)OCC3=CC[C@@H]12
Lactuca sativa [1]
  Activity: inactive
Lepidium sativum [2]; 120 h
  inhibition at 100 µM: 20%
Solanum lycopersicum [3]
  inhibition: inactive
Triticum aestivum [4]
  inhibition: inactive
Lactuca sativa [5]
  Activity: <20%
Lepidium sativum [6]
  Activity: 20%
Lactuca sativa [7]
  inhibition: inactive
Lactuca sativa [8]
  inhibition at 100 µM: < 20%
Lactuca sativa [9]
  Activity: <20%
Lepidium sativum [10]
  inhibition: inactive
Hordeum vulgare [11]
  inhibition at 100 µM: > 40%
Solanum lycopersicum [12]
  Activity: inactive
Lactuca sativa [13]; 120 h
  inhibition at 100 µM: < 20%
Hordeum vulgare [14]
  inhibition at 100 µM: 20%
Lactuca sativa [15]
  inhibition at 100 µM: < 20%
Hordeum vulgare [16]
  Activity: inactive
Allium cepa [17]
  inhibition at 100 µM: < 20%
Solanum lycopersicum [18]
  Activity: inactive
Lepidium sativum [19]
  Activity: 20%
Allium cepa [20]
  inhibition at 100 µM: 20%
Allium cepa [21]
  Activity: 20%
Lactuca sativa [22]
  Activity: <20%
Hordeum vulgare [23]
  inhibition: inactive
Lepidium sativum [24]; 120 h
  inhibition at 100 µM: 20%
Triticum aestivum [25]
  Activity: inactive
Hordeum vulgare [26]
  Activity: >40%
Allium cepa [27]
  Activity: 20%
Triticum aestivum [28]
  inhibition: inactive
Lactuca sativa [29]
  Activity: 20%
Allium cepa [30]
  inhibition at 100 µM: 20%
Lepidium sativum [31]
  Activity: inactive
Lactuca sativa [32]; 120 h
  inhibition at 100 µM: < 20%
Solanum lycopersicum [33]
  inhibition: inactive
Triticum aestivum [34]
  Activity: inactive
Triticum aestivum [35]
  Activity: inactive
Hordeum vulgare [36]
  Activity: 20%
Allium cepa [37]
  Activity: <20%
Lactuca sativa [38]
  Activity: <20%
Solanum lycopersicum [39]
  Activity: inactive
Lactuca sativa [40]; 120 h
  inhibition at 100 µM: 20%
Triticum aestivum [41]
  inhibition: inactive
Solanum lycopersicum [42]
  inhibition: inactive

## COC(=O)[C@@]1(C)CCC[C@]2(C)C3=CC(=O)OC[C@]34O[C@@H]4C[C@@H]12
Lactuca sativa [1]
  Activity: inactive
Lepidium sativum [2]
  inhibition: inactive
Solanum lycopersicum [3]; 120 h
  inhibition at 100 µM: < 20%
Triticum aestivum [4]
  inhibition: inactive
Lactuca sativa [5]
  Activity: <20%
Lepidium sativum [6]
  Activity: inactive
Lactuca sativa [7]
  inhibition: inactive
Lactuca sativa [8]
  inhibition at 100 µM: < 20%
Lactuca sativa [9]
  Activity: inactive
Lepidium sativum [10]
  inhibition: inactive
Hordeum vulgare [11]
  inhibition at 100 µM: 20%
Solanum lycopersicum [12]
  Activity: 20%
Lactuca sativa [13]
  inhibition: inactive
Hordeum vulgare [14]
  inhibition at 100 µM: 20%
Lactuca sativa [15]
  inhibition at 100 µM: < 20%
Hordeum vulgare [16]
  Activity: <20%
Allium cepa [17]
  inhibition at 100 µM: < 20%
Solanum lycopersicum [18]
  Activity: <20%
Lepidium sativum [19]
  Activity: inactive
Allium cepa [20]
  inhibition at 100 µM: < 20%
Allium cepa [21]
  Activity: <20%
Lactuca sativa [22]
  Activity: <20%
Hordeum vulgare [23]; 120 h
  inhibition at 100 µM: < 20%
Lepidium sativum [24]
  inhibition: inactive
Triticum aestivum [25]
  Activity: inactive
Hordeum vulgare [26]
  Activity: 20%
Allium cepa [27]
  Activity: <20%
Triticum aestivum [28]
  inhibition: inactive
Lactuca sativa [29]
  Activity: inactive
Allium cepa [30]
  inhibition at 100 µM: < 20%
Lepidium sativum [31]
  Activity: inactive
Lactuca sativa [32]
  inhibition: inactive
Solanum lycopersicum [33]; 120 h
  inhibition at 100 µM: 20%
Triticum aestivum [34]
  Activity: inactive
Triticum aestivum [35]
  Activity: 20%
Hordeum vulgare [36]
  Activity: 20%
Allium cepa [37]
  Activity: <20%
Lactuca sativa [38]
  Activity: inactive
Solanum lycopersicum [39]
  Activity: 20%
Lactuca sativa [40]
  inhibition: inactive
Triticum aestivum [41]; 120 h
  inhibition at 100 µM: 20%
Solanum lycopersicum [42]; 120 h
  inhibition at 100 µM: 20%
